Data as given in US20110003314A1, “Hapten, Immunogens and Derivatives of Ascomycin Useful for Preparation of Antibodies and Immunoassays” (MICROGENICS CORPORATION, priority 2004, published 2011).

How the values were obtained:
[1] = test system: monoclonal antibody produced by hybridoma line 28E2; assay: CEDIA tacrolimus assay specificity (cross-reactivity); type: binding, mice; settings: for Concentration Measured: added to whole blood, concentration tested 20 ng/ml
Procedure: Antibodies obtained using any of the aforementioned techniques are screened or purified not only for their ability to bind specifically with tacrolimus, but also for low cross-reactivity with potential interfering substances. “Cross reactivity” is determined in a quantitative immunoassay by establishing a standard curve using known dilutions of tacrolimus or ascomycin. […] The percent (%) cross-reactivity is the measured concentration divided by the tested concentration multiplied by 100.
If tacrolimus is present in the sample, it binds to the antibody, leaving the ED portion of the competing conjugate free to restore enzyme activity upon complementation reaction with enzyme acceptor (EA) fragments in the assay reaction mixture. The active enzyme is then capable of producing a quantifiable reaction product when exposed to appropriate substrate. If drug is not present in the sample, the antibody binds to the ED-drug conjugate inhibiting association of the ED fragments with the EA fragments, thus inhibiting restoration of enzyme activity. The amount of reaction product and resultant absorbance change are proportional to the amount of drug in the sample.
Each of four naturally occurring metabolites of tacrolimus, at a concentration of approximately 20 ng/ml, was added separately to a whole blood specimen. […] The cross reactivity of the metabolites was calculated as:
(measured concentration)/20ng/ml×100%
In another experiment, commonly co-administered immunosuppressants were added to whole blood and tested for cross-reactivity.

[2] = test system: antibodies that bind rapamycin; settings: taught by Sedrani et al.; cited from earlier work
[3] = other immunosuppressants in whole blood, tested concentration 100,000 ng/ml
[4] = tacrolimus metabolites, 20 ng/ml in whole blood, (measured concentration)/20 ng/ml x 100%

SMILES | % Cross-Reactivity [1, 3] [%] | Concentration Measured [1] [ng/mL] | % Cross-Reactivity [1, 4] [%] | cross-reactivity of rapamycin-binding antibodies [2]
C[C@]12C=CC(=O)C=C1CC[C@@H]1[C@@H]2[C@@H](O)C[C@@]2(C)[C@H]1CC[C@]2(O)C(=O)CO [Prednisolone] | 0.0 | – | – | –
C=CCC1C=C(C)CC(C)CC(OC)C2OC(O)(C(=O)C(=O)N3CCCCC3C(=O)OC(C(C)=CC3CCC(O)C(O)C3)C(C)C(O)CC1=O)C(C)CC2O (stereo not drawn) [13,31-O-didemethyl-T, 13,31-O-didemethyl tacrolimus] | – | 0.57 | 2.9 | –
C=CCC1C=C(C)CC(C)CC(OC)C2OC(O)(C(=O)C(=O)N3CCCCC3C(=O)OC(C(C)=CC3CCC(O)C(O)C3)C(C)C(O)CC1=O)C(C)CC2OC (stereo not drawn) [31-O-demethyl-T, 31-O-demethyl tacrolimus] | – | 0.98 | 4.9 | –
C=CCC1C=C(C)CC(C)CC(OC)C2OC(O)(C(=O)C(=O)N3CCCCC3C(=O)OC(C(C)=CC3CCC(O)C(OC)C3)C(C)C(O)CC1=O)C(C)CC2O (stereo not drawn) [13-O-demethyl-T, 13-O-demethyl tacrolimus] | – | 7.5 | 37.7 | –
COc1c(C)c2c(c(O)c1C/C=C(\C)CCC(=O)O)C(=O)OC2 [Mycophenolic acid] | 0.0 | – | – | –
C[C@]12CCC(=O)C=C1CC[C@@H]1[C@@H]2[C@@H](O)C[C@@]2(C)[C@H]1CC[C@]2(O)C(=O)CO [Hydrocorticol] | 0.0 | – | – | –
C=CC[C@@H]1/C=C(\C)C[C@H](C)C[C@H](OC)[C@H]2O[C@@](O)(C(=O)C(=O)N3CCCC[C@H]3C(=O)O[C@H](/C(C)=C/[C@@H]3CC[C@@H](O)[C@H](OC)C3)[C@H](C)[C@@H](O)CC1=O)[C@H](C)C[C@@H]2OC [tacrolimus] | – | 20.0 | 100.0 | greater than 50%
C[C@]12C=CC(=O)C=C1CC[C@@H]1[C@@H]2C(=O)C[C@@]2(C)[C@H]1CC[C@]2(O)C(=O)CO [Prednisone] | 0.0 | – | – | –
C=CCC1C=C(C)CC(C)CC(O)C2OC(O)(C(=O)C(=O)N3CCCCC3C(=O)OC(C(C)=CC3CCC(O)C(OC)C3)C(C)C(O)CC1=O)C(C)CC2OC (stereo not drawn) [15-O-demethyl-T, 15-O-demethyl tacrolimus] | – | 0.95 | 4.7 | –
